Test system: panel of 484 cancer cell lines
Assay: PRISM cancer cell line profiling, 5 days
Assay type: cell-based
Parameters: AUC: unit not given beside the values
Protocol: Cancer cell line profiling was performed using the Broad’s PRISM platform. Cell treatment and data analysis were performed as described in Yu et al[42]. Raw Luminex signal was converted to AUC values for each cell line as described. The resulting AUC profile for each compound was modeled against DepMap using the limma package in R[71]. Because hotspot mutation analysis was performed against DepMap, TP53 annotations in Fig. 6c,d are directly from DepMap.

## CN1CCN(CCC(=O)Nc2ccc3c(=O)n(CC4(O)CCN(C(=O)[C@H](CCCNC(=O)c5ccc6c(Cl)c7c(nc6c5)CCCC7)Cc5ccccc5)CC4)cnc3c2)CC1 [XL177B]
MFE319_ENDOMETRIUM
  AUC: 1.072
MG63_BONE
  AUC: 1.289
MHHES1_BONE
  AUC: 1.021
MIAPACA2_PANCREAS
  AUC: 1.024
MKN1_STOMACH
  AUC: 1.134
MKN7_STOMACH
  AUC: 0.9188
MKN45_STOMACH
  AUC: 0.937
MKN74_STOMACH
  AUC: 1.1384
MON_SOFT_TISSUE
  AUC: 0.868
MPP89_PLEURA
  AUC: 1.104
MSTO211H_PLEURA
  AUC: 1.149
NB1_AUTONOMIC_GANGLIA
  AUC: 0.9815
NCIH23_LUNG
  AUC: 1.159
NCIH28_PLEURA
  AUC: 1.1
NCIH226_LUNG
  AUC: 1
NCIH292_LUNG
  AUC: 1.194
NCIH322_LUNG
  AUC: 1.142
NCIH358_LUNG
  AUC: 0.8695
NCIH446_LUNG
  AUC: 1.097
NCIH460_LUNG
  AUC: 1.182
NCIH520_LUNG
  AUC: 1.115
NCIH522_LUNG
  AUC: 1.144
NCIH596_LUNG
  AUC: 1.0995
NCIH650_LUNG
  AUC: 0.9625
NCIH661_LUNG
  AUC: 1.097
NCIH727_LUNG
  AUC: 0.8802
NCIH747_LARGE_INTESTINE
  AUC: 1.192
NCIH838_LUNG
  AUC: 1.102
NCIH841_LUNG
  AUC: 0.9191
NCIH1048_LUNG
  AUC: 1.221
NCIH1299_LUNG
  AUC: 1.132
NCIH1339_LUNG
  AUC: 1.0827
NCIH1355_LUNG
  AUC: 1
NCIH1373_LUNG
  AUC: 1
NCIH1435_LUNG
  AUC: 1.103
NCIH1437_LUNG
  AUC: 1.1299
NCIH1563_LUNG
  AUC: 1.106
NCIH1568_LUNG
  AUC: 1.0425
NCIH1573_LUNG
  AUC: 1.2267
NCIH1581_LUNG
  AUC: 1
NCIH1623_LUNG
  AUC: 0.9367
NCIH1648_LUNG
  AUC: 0.9797
NCIH1650_LUNG
  AUC: 1
NCIH1651_LUNG
  AUC: 1.093
NCIH1693_LUNG
  AUC: 0.9899
NCIH1703_LUNG
  AUC: 1.014
NCIH1792_LUNG
  AUC: 1.039
NCIH1793_LUNG
  AUC: 1.204
NCIH1838_LUNG
  AUC: 1.05
NCIH1915_LUNG
  AUC: 1.114
NCIH1944_LUNG
  AUC: 1.069
NCIH1975_LUNG
  AUC: 0.971
NCIH2009_LUNG
  AUC: 1.115
NCIH2023_LUNG
  AUC: 1.241
NCIH2030_LUNG
  AUC: 1.104
NCIH2052_PLEURA
  AUC: 1.077
NCIH2077_LUNG
  AUC: 1.134
NCIH2087_LUNG
  AUC: 1.226
NCIH2110_LUNG
  AUC: 1.058
NCIH2122_LUNG
  AUC: 0.9408
NCIH2126_LUNG
  AUC: 1.236
NCIH2170_LUNG
  AUC: 1.101
NCIH2172_LUNG
  AUC: 1.092
NCIH2228_LUNG
  AUC: 1.118
NCIH2347_LUNG
  AUC: 1.188
NCIH2444_LUNG
  AUC: 1.192
NCIH2452_PLEURA
  AUC: 1.126
NCIN87_STOMACH
  AUC: 1.49
NUGC3_STOMACH
  AUC: 1.06
NUGC4_STOMACH
  AUC: 0.9885
OAW42_OVARY
  AUC: 1.241
OC314_OVARY
  AUC: 1.074
OC316_OVARY
  AUC: 1.04
OE19_OESOPHAGUS
  AUC: 1.175
OE21_OESOPHAGUS
  AUC: 1.031
OE33_OESOPHAGUS
  AUC: 1.151
ONCODG1_OVARY
  AUC: 0.9433
ONS76_CENTRAL_NERVOUS_SYSTEM
  AUC: 0.9415
OSRC2_KIDNEY
  AUC: 0.9859
OUMS23_LARGE_INTESTINE
  AUC: 0.9052
OV56_OVARY
  AUC: 1.208
OVCAR8_OVARY
  AUC: 0.9939
OVISE_OVARY
  AUC: 0.9359
OVK18_OVARY
  AUC: 1.044
OVSAHO_OVARY
  AUC: 1.01
OVTOKO_OVARY
  AUC: 1.081
PANC1_PANCREAS
  AUC: 0.9949
PANC0203_PANCREAS
  AUC: 0.9842
PANC0327_PANCREAS
  AUC: 1.28
PANC0403_PANCREAS
  AUC: 1.185
PANC0813_PANCREAS
  AUC: 1.0849
PANC1005_PANCREAS
  AUC: 1.231
PATU8902_PANCREAS
  AUC: 1.2352
PATU8988S_PANCREAS
  AUC: 1.1933
PATU8988T_PANCREAS
  AUC: 1.0752
PC3_PROSTATE
  AUC: 0.9113
PC14_LUNG
  AUC: 1.023
PECAPJ15_UPPER_AERODIGESTIVE_TRACT
  AUC: 0.9342
PECAPJ41CLONED2_UPPER_AERODIGESTIVE_TRACT
  AUC: 0.9621
PECAPJ49_UPPER_AERODIGESTIVE_TRACT
  AUC: 1.067
PK1_PANCREAS
  AUC: 1.024
PK45H_PANCREAS
  AUC: 1.109
PK59_PANCREAS
  AUC: 1.206
PLCPRF5_LIVER
  AUC: 1.091
PSN1_PANCREAS
  AUC: 1.221
QGP1_PANCREAS
  AUC: 0.967
RCC10RGB_KIDNEY
  AUC: 1.114
RCM1_LARGE_INTESTINE
  AUC: 1.243
RD_SOFT_TISSUE
  AUC: 1.111
RERFLCAD1_LUNG
  AUC: 1.059
RERFLCAD2_LUNG
  AUC: 1.0662
RERFLCAI_LUNG
  AUC: 0.9008
RERFLCKJ_LUNG
  AUC: 0.9276
RERFLCMS_LUNG
  AUC: 1.058
RH30_SOFT_TISSUE
  AUC: 1.104
RKN_SOFT_TISSUE
  AUC: 0.8189
RKO_LARGE_INTESTINE
  AUC: 0.9705
RL952_ENDOMETRIUM
  AUC: 1.086
RMGI_OVARY
  AUC: 1.148
RMUGS_OVARY
  AUC: 0.9927
RT4_URINARY_TRACT
  AUC: 1.661
